According to ChEMBL document CHEMBL1201862, “PubChem BioAssay data set” (2004):
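Interpolation was linear, between the two tested concentrations surrounding the appropriate level; five concentrations were tested over 48 hours in 96-well plates. GI50 = concentration required for 50% inhibition of growth.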 Calls of active or inactive are those of the source. Cut-off read from the data, not from the text of the source: active = GI50 up to about 1.1 µM and inactive = higher.

Tests used:
Assay in all cases: NCI-60 cell line screen, 48 h
SF-268 = tested on: SF-268
HCC 2998 = tested on: HCC 2998
MDA-MB-435 = tested on: MDA-MB-435
NCI-H23 = tested on: NCI-H23
OVCAR-5 = tested on: OVCAR-5
SNB-19 = tested on: SNB-19
HOP-92 = tested on: HOP-92
EKVX = tested on: EKVX
OVCAR-8 = tested on: OVCAR-8
PC-3 = tested on: PC-3
LOX IMVI = tested on: LOX IMVI
HL-60 = tested on: HL-60
M14 = tested on: M14
IGROV-1 = tested on: IGROV-1
HOP-62 = tested on: HOP-62
UO-31 = tested on: UO-31
NCI-H460 = tested on: NCI-H460
SK-MEL-2 = tested on: SK-MEL-2
OVCAR-3 = tested on: OVCAR-3
HCT-15 = tested on: HCT-15

Structure (SMILES) | GI50 (SF-268) | GI50 (HCC 2998) | GI50 (MDA-MB-435) | GI50 (NCI-H23) | GI50 (OVCAR-5) | GI50 (SNB-19) | GI50 (HOP-92) | GI50 (EKVX) | GI50 (OVCAR-8) | GI50 (PC-3) | GI50 (LOX IMVI) | GI50 (HL-60) | GI50 (M14) | GI50 (IGROV-1) | GI50 (HOP-62) | GI50 (UO-31) | GI50 (NCI-H460) | GI50 (SK-MEL-2) | GI50 (OVCAR-3) | GI50 (HCT-15)
NC(=O)N(O)c1cccc(Br)c1 | > 100 µM (inactive) | > 100 µM (inactive) | > 100 µM (inactive) | > 100 µM (inactive) | > 100 µM (inactive) | > 100 µM (inactive) | > 100 µM (inactive) | > 100 µM (inactive) | > 100 µM (inactive) | > 100 µM (inactive) | > 100 µM (inactive) | > 100 µM (inactive) | > 100 µM (inactive) | > 100 µM (inactive) | > 100 µM (inactive) | > 100 µM (inactive) | > 100 µM (inactive) | 66.5 µM (inactive) | > 100 µM (inactive) | > 100 µM
CC1(C)O[C@@H]2[C@@H]3OC(=O)C[C@@H]3[C@@H](COCc3ccccc3)[C@@H]2O1 | > 100 µM (inactive) | > 100 µM (inactive) | > 100 µM (inactive) | > 100 µM (inactive) | > 100 µM (inactive) | > 100 µM (inactive) | > 100 µM (inactive) | > 100 µM (inactive) | > 100 µM (inactive) | > 100 µM (inactive) | > 100 µM (inactive) | > 100 µM (inactive) | > 100 µM (inactive) | > 100 µM (inactive) | > 100 µM (inactive) | > 100 µM (inactive) | > 100 µM (inactive) | > 100 µM (inactive) | > 100 µM (inactive) | > 100 µM
Oc1ccc(Br)cc1/C=N/C1CCCCC1 | 10.6 µM (inactive) | 25.5 µM (inactive) | 28.2 µM (inactive) | 34.4 µM (inactive) | > 100 µM (inactive) | 53 µM (inactive) | 72.1 µM (inactive) | > 100 µM (inactive) | 20.5 µM (inactive) | 15.2 µM (inactive) | 13.3 µM (inactive) | 4.81 µM (inactive) | 34.8 µM (inactive) | 24.1 µM (inactive) | 45.4 µM (inactive) | 33.8 µM (inactive) | 71.4 µM (inactive) | 25.1 µM (inactive) | 13.1 µM (inactive) | 5.56 µM
CN1CCN(c2c(Cl)cc(Cl)c3[nH]c4ccccc4c(=O)c23)CC1 | 2.86 µM (inactive) | 5.66 µM (inactive) | 5.71 µM (inactive) | 8.87 µM (inactive) | 10.2 µM (inactive) | 6.4 µM (inactive) | 1.35 µM (inactive) | 10.5 µM (inactive) | 5.07 µM (inactive) | 6.38 µM (inactive) | 3.64 µM (inactive) | 2.28 µM (inactive) | 6.01 µM (inactive) | 4.46 µM (inactive) | 6.15 µM (inactive) | 4.29 µM (inactive) | 11.2 µM (inactive) | 12.2 µM (inactive) | 10.2 µM (inactive) | 3.39 µM
Cc1ccc(/N=N\c2c(O)ccc3cc(S(=O)(=O)O)ccc23)cc1 | > 100 µM (inactive) | > 100 µM (inactive) | > 100 µM (inactive) | > 100 µM (inactive) | > 100 µM (inactive) | > 100 µM (inactive) | > 100 µM (inactive) | > 100 µM (inactive) | > 100 µM (inactive) | > 100 µM (inactive) | > 100 µM (inactive) | > 100 µM (inactive) | > 100 µM (inactive) | > 80.2 µM (inactive) | > 100 µM (inactive) | > 100 µM (inactive) | > 100 µM (inactive) | > 100 µM (inactive) | > 100 µM (inactive) | > 100 µM
COC(=O)C(Cc1ccccc1)NC(=O)C(CCC(=O)OCc1ccccc1)NC(=O)OC(C)(C)C (stereo not given) | > 100 µM (inactive) | 31 µM (inactive) | > 100 µM (inactive) | > 100 µM (inactive) | > 100 µM (inactive) | > 100 µM (inactive) | > 100 µM (inactive) | > 100 µM (inactive) | > 100 µM (inactive) | 81.7 µM (inactive) | 30.3 µM (inactive) | 54.8 µM (inactive) | > 100 µM (inactive) | > 100 µM (inactive) | > 100 µM (inactive) | 26.1 µM (inactive) | 30.5 µM (inactive) | > 100 µM (inactive) | 50.2 µM (inactive) | 85.5 µM
CCOc1ccc(/N=N/S(=O)(=O)O)cc1 | > 100 µM (inactive) | > 100 µM (inactive) | > 100 µM (inactive) | > 100 µM (inactive) | > 100 µM (inactive) | > 100 µM (inactive) | > 100 µM (inactive) | > 100 µM (inactive) | > 100 µM (inactive) | > 100 µM (inactive) | > 100 µM (inactive) | > 100 µM (inactive) | > 100 µM (inactive) | > 100 µM (inactive) | > 100 µM (inactive) | > 100 µM (inactive) | > 100 µM (inactive) | > 100 µM (inactive) | > 100 µM (inactive) | > 100 µM
COc1cc(C(=O)NC(CCN)(c2ccccc2)c2ccccc2)cc(OC)c1OC | 29.1 µM (inactive) | 13.4 µM (inactive) | 16 µM (inactive) | 26.3 µM (inactive) | > 87.5 µM (inactive) | > 58.5 µM (inactive) | 15.3 µM (inactive) | > 31.6 µM (inactive) | > 31.6 µM (inactive) | > 100 µM (inactive) | 16.7 µM (inactive) | 12.2 µM (inactive) | 13.9 µM (inactive) | 25.1 µM (inactive) | > 31.6 µM (inactive) | 20.9 µM (inactive) | 19.2 µM (inactive) | 63.2 µM (inactive) | 56.8 µM (inactive) | > 31.6 µM
N#CC12CC=C(c3ccccc3)N=C1NC(c1ccccc1)=CC2 (stereo not given) | > 100 µM (inactive) | > 100 µM (inactive) | 35.6 µM (inactive) | 84.9 µM (inactive) | > 100 µM (inactive) | 90.8 µM (inactive) | 16 µM (inactive) | 52.2 µM (inactive) | 48.2 µM (inactive) | 33.9 µM (inactive) | 30.8 µM (inactive) | 22.4 µM (inactive) | 42.1 µM (inactive) | > 100 µM (inactive) | > 100 µM (inactive) | 40.3 µM (inactive) | 57.5 µM (inactive) | 56.4 µM (inactive) | > 100 µM (inactive) | 69.7 µM
